Source: ChEMBL document CHEMBL5226287, “Small organic molecules targeting the energy metabolism of Mycobacterium tuberculosis” (Eur J Med Chem, 2021)
≈ marks a conversion by molar mass, not a printed value. Starred links: 1 amine or outer side, 2 acyl side, 3 side chain; linkers in the order of their positions; H or OH if unused. Non-standard residues stand in square brackets, D forms with d. Residues, ends and D or L forms follow the SMILES beside them. ξ: configuration not given here. *: point of attachment. X1 = CCC(=O)C[C@@H](O)C[C@@H](C)C[C@H](N[*:1])C(=O)[*:2]; Alaψ(CH2NMeCH2CH2OH) = C[C@@H](CN(C)CCO)N*; Decanoyl(2R-Me) = CCCCCCCC[C@@H](C)C(=O)*; Ile(3ξ) = CCC(C)[C@H](N)C(=O)O; ξβ3hP = O=C(O)CC1CCCN1; Aib = CC(C)(N)C(=O)O

Key:
Type in all cases: functional
[1] = system: Mycobacterium tuberculosis; assay: Antimycobacterial activity against Mycobacterium tuberculosis QcrBT mutant assessed as reduction in bacterial growth
[2] = system: Mycobacterium tuberculosis; assay: Antibacterial activity against Mycobacterium tuberculosis H37Rv resistant isoniazid by CLSI broth microdilution method; conditions: route inh
[3] = system: Mycobacterium tuberculosis; assay: Antibacterial activity against Mycobacterium tuberculosis H37Rv resistant rifampicin by CLSI broth microdilution method
[4] = system: Mycobacterium tuberculosis; assay: Antibacterial activity against rifampicin-resistant Mycobacterium tuberculosis H37Rv assessed as bacterial growth inhibition by microdilution method
[5] = system: Mycobacterium tuberculosis; assay: Antibacterial activity against isoniazid-resistant Mycobacterium tuberculosis H37Rv assessed as bacterial growth inhibition by microdilution method
[6] = system: Mycobacterium tuberculosis; assay: Antibacterial activity against drug resistant Mycobacterium tuberculosis H37Rv in the presence of ATP synthase
[7] = system: Mycobacterium tuberculosis; assay: Antibacterial activity against Mycobacterium tuberculosis H37Rv overexpressed in ATP synthase

Cc1ccn2c(C(=O)NCc3ccccc3)c(C)nc2c1
MIC90 [1]: 6.5 µM (≈ 1.82 µg/mL)

CCCc1cc(OCC(=O)Nc2ccccc2OC)c2cc(OC)ccc2n1
MIC [2]: 0.01 µg/mL (≈ 0.0263 µM) | MIC [3]: 0.01 µg/mL (≈ 0.0263 µM)

Cc1cn2c(C(=O)NCc3ccc(C(F)(F)F)cc3)c(C)nc2s1
MIC [4]: < 0.04 µM | MIC [5]: < 0.04 µM

CN(C)Cc1ccc(-c2cc3cc(Br)ccc3nc2OCc2ccncc2)cc1
MIC [6]: 0.48 µg/mL

Cc1cn2c(C(=O)NCc3ccc(N4CCN(c5ccc(C(F)(F)F)cn5)CC4)c(F)c3)c(C)nc2s1
MIC [4]: < 0.201 µM | MIC [5]: < 0.506 µM

CN(C)CCN1CCN(c2ccc(-c3cc4cc(Br)ccc4nc3OCc3ccc4ccccc4c3)cc2)CC1
MIC [6]: 0.94 µg/mL

Cc1ccn2c(C(=O)NCc3cccc(OC(C)C)c3)c(C)nc2c1
MIC90 [1]: >20 µM

CCCCCCCC[C@@H](C)C(=O)N1CCCC1CC(=O)N[C@@H](C[C@H](C)C[C@H](O)CC(=O)CC)C(=O)NC(C)(C)C(=O)NC(C)(C)C(=O)N[C@H](C(=O)N[C@H](C(=O)NC(C)(C)C(=O)NC(C)(C)C(=O)N[C@@H](C)CN(C)CCO)C(C)C)C(C)CC (stereo partly drawn) ({Decanoyl(2R-Me)}-[ξβ3hP][X1][Aib][Aib][Ile(3ξ)]V[Aib][Aib]-{Alaψ(CH2NMeCH2CH2OH)})
MIC [7]: 0.12 µg/mL (≈ 0.102 µM)
